Results taken from patent US7501398B2, “Inhibitor of the folding of the HIV-1-protease as antiviral agent” (priority 2005, dated 2009).

Legend:
[1] = target: T1, HIV-1-Protease (Human immunodeficiency virus type 1 group M subtype B, UniProt P04585, C555A/C583A/L521I/L551I/Q495K); experiment: biochemical; assay type: biochemical; design: Recombinant HIV-1-Protease, expressed in E. Coli; purchased Sigma P7338; host or cells: E. coli; conditions: for Ki: pH 6, 37 °C; for variation in the kinetic parameters with respect to the uninhibited case: control peptides used in the same way as p-S8
Procedure: Recombinant HIV-1-Protease, expressed in E. Coli (Sigma Cat. no. P7338)contained five mutations to restrict autoproteolysis (Q7K, L33I, […]) and to restrict cysteine thiol oxidation (C67A and C95A). The enzyme was stored at (−70° C. as solution with concentration 25 mg/63 mL in dilute HCl, (pH=1.6)). A chromogenic substrate for HIV-1-PR (Sigma Cat. no. H5535) was obtained as a 1 mg desiccate, diluted with 0.1 ml of DMSO, and stored at −20° C. Protease assisted cleavage between the Nle and the Phe(NO2) residues of substrate entails a blue-shift of the absorption maximum (277 nm to 272 nm). It can be adequately monitored observing the continuous decrease of absorbance at […]. […] Res. Comm 168:274-280.
After that 1 mg of inhibitor peptide was dissolved in […] of DMSO, 4 ml of this solution were then diluted with 16 ml of DMSO and 180 ml of the buffer used for assay.
The buffer was prepared by adding […] NaCl, 1 mM EDTA and 1 mM dithiothreitol to a 20 mM phosphate buffer (pH 6).
The sequences of these control peptides are […] (SEQ ID NO:2) and […] (SEQ ID NO:3) corresponding to fragments 61-70 and 9-19, respectively, of the HIV-1-PR sequence, as well as the […] (SEQ ID NO:4) sequence, which is not related in any way to the protease.
Each measure was performed recording the absorbance at 300 nm (4.13 eV) in a standard UV-vis spectrophotometer (Jasco V-560). […] The sample in the cuvette was exposed to a constant temperature (37±0.05° C.) provided by continuous circulation of water from a water bath to the cell holder via a circulation pump.
After proper thermal stabilization of the substrate dissolved in the buffer (pH 6), the absorbance at 300 nm was recorded. We performed 6 measures spanning a range of substrate concentrations from 50 μM to 250 μM. The reaction was initiated by adding 2.78 μg of enzyme and recording the absorbance decrease at 300 nm for 1200 sec. In all the reported measures the enzyme has thus a nominal concentration of 1.8 μM. Since, to our knowledge, no accurate measure has been published of the dimerization constant of HIV-1-PR at pH=6.0, it is difficult to estimate precisely the active site concentration in our assay.
In all the reported measures the final concentration of inhibitor was [I0]=[…]. The Absorbance decrease at 300 nm was recorded for 1200 sec.

[2] = target: T1, HIV-1-Protease; conditions: protease:peptide 1:3; protease alone 79%
Procedure: Ultraviolet CD spectra were recorded on a Jasco J-810 spectropolarimeter in nitrogen atmosphere at room temperature using 0.1 cm path-length quartz cell. Each spectrum was recorded between 260-200 nm. The data were collected at a rate of 10 nm/min with a wavelength step of 0.2 nm and a time constant of 2 s. The spectra were corrected with respect to the baseline and normalized to the aminoacidic concentration. The protein and the peptide were dissolved in a 20 mM phosphate buffer with 0.8 M NaCl at the same concentration used for the activity assays. The CD spectra were analyzed in terms of contribution of secondary structure elements using the K2D method based on comparison with CD spectra of proteins and peptides with known secondary structure.
The conformational properties of the inhibited protease have been investigated by means of UV circular dichroism experiments.

[3] = enzyme:peptide 1:3, pH 6, 37 °C

Row | Compound | inhibition mechanism [1] | Ki ([1]; dissociation constant KI (inhibitor-free enzyme)) | Ki ([1]; dissociation constant K′I (inhibitor-substrate-enzyme complex)) | apparent dissociation constant K′M of the inhibited reaction [1, 3] | maximum velocity vmax of the inhibited reaction [1, 3] | beta-sheet content of protease plus peptide (CD) [2] | variation in the kinetic parameters with respect to the uninhibited case [1] | initial velocity v0 of the reaction in presence of peptide ([1]; [S0]=125 mM (FIG. 7(b)))
1 | CC[C@H](C)[C@H](NC(=O)[C@H](CCC(N)=O)NC(=O)[C@@H](NC(=O)[C@H](CC(C)C)NC(=O)[C@H](CC(C)C)NC(=O)[C@H](CC(N)=O)NC(=O)[C@H](CCCNC(=N)N)NC(=O)CNC(=O)[C@@H](NC(=O)[C@@H](NC(=O)[C@H](CC(N)=O)NC(C)=O)[C@@H](C)CC)[C@@H](C)CC)[C@@H](C)O)C(N)=O [p-S8, 83N, 84I, 85I, 86G, 87R, 88N, 89L, 90L, 91T, 92Q, 93I] | non-competitive | 380 ± 810 nM | 180 ± 234 nM | 332 ± 191 mM | 0.026 ± 0.011 mM/s | 45% | – | –
2 | LSQETFDLWKLLPEN (Designed Peptide) [K3, reference compound] | – | – | – | – | – | – | no appreciable variation | –
3 | QILIEICGHK (Fragment 61-70 of the HIV-1-PR sequence) [K1, reference compound] | – | – | – | – | – | – | no appreciable variation | 0.051 µM/s
